Columns and labels:
[1] = tested on: HeLa cells; experiment: Proliferation Assay with HeLa cells; assay type: cell-based; settings: Homo sapiens, 96 h, 4 days incubation, crystal violet staining
Experimental: After 24 hours, the cells of one plate (zero-point plate) were stained with crystal violet (see below), while the medium of the other plates was replaced by fresh culture medium (200 μl), to which the test substances were added in various concentrations (0 μM, as well as in the range of 0.01-30 μM; the final concentration of the solvent dimethyl sulfoxide was 0.5%). The cells were incubated for 4 days in the presence of test substances. […] After three washing cycles of the fixed cells with water, the plates were dried at room temperature. The cells were stained by adding 100 μl/measuring point of a 0.1% crystal violet solution (pH 3.0). After three washing cycles of the stained cells with water, the plates were dried at room temperature. The dye was dissolved by adding 100 μl/measuring point of a 10% acetic acid solution. The extinction was determined by photometry at a wavelength of 595 nm. The change of cell number, in percent, was calculated by normalization of the measured values to the extinction values of the zero-point plate (=0%) and the extinction of the untreated (0 μm) cells (=100%). The IC50 values were determined by means of a 4 parameter fit using the company's own software.

[2] = In vitro metabolic stability in rat hepatocytes; assay type: in vitro ADME; settings: maximal oral bioavailability calculated from half-life in Han Wistar rat hepatocytes, 1 μM test compound
Experimental: Investigation of In Vitro Metabolic Stability in Rat Hepatocytes (Including Calculation of Hepatic In Vivo Blood Clearance (CL)) Hepatocytes from Han Wistar rats were isolated via a 2-step perfusion method. After perfusion, the liver was carefully removed from the rat: the liver capsule was opened and the hepatocytes were gently shaken out into a Petri dish with ice-cold WME. The resulting cell suspension was filtered through sterile gaze in 50 ml falcon tubes and centrifuged at 50×g for 3 min at room temperature. The cell pellet was resuspended in 30 ml WME and centrifuged through a Percoll® gradient for 2 times at 100×g. The hepatocytes were washed again with Williams' medium E (WME) and resuspended in medium containing 5% FCS. Cell viability was determined by trypan blue exclusion. For the metabolic stability assay liver cells were distributed in WME containing 5% FCS to glass vials at a density of 1.0×10^6 vital cells/mL. […] During incubation, the hepatocyte suspensions were continuously shaken and aliquots were taken at 2, 8, 16, 30, 45 and 90 min, to which equal volumes of cold methanol were immediately added. Samples were frozen at −20° C. over night, after subsequently centrifuged for 15 minutes at 3000 rpm and the supernatant was analyzed with an Agilent 1200 HPLC-system with LCMS/MS detection. The half-life of a test compound was determined from the concentration-time plot. From the half-life the intrinsic clearances were calculated. Together with the additional parameters liver blood flow, amount of liver cells in vivo and in vitro. The hepatic in vivo blood clearance (CL) and the maximal oral bioavailability (Fmax) was calculated. The following parameter values were used: Liver blood flow—4.2 L/h/kg rat; specific liver weight—32 g/kg rat body weight; liver cells in vivo—1.1×10^8 cells/g liver, liver cells in vitro—0.5×10^6/ml.

[3] = tested on: spindle assembly checkpoint (Mps-1) in HeLa cells; experiment: cells; assay type: cell-based; settings: Homo sapiens; HeLa cells arrested with nocodazole, 4 h with test compound, phospho-histone H3 (Ser10) readout; read-out: SAC
From the text: Spindle Assembly Checkpoint Assay
The spindle assembly checkpoint assures the proper segregation of chromosomes during mitosis. Upon entry into mitosis, chromosomes begin to condensate which is accompanied by the phosphorylation of histone H3 on serine 10. Dephosphorylation of histone H3 on serine 10 begins in anaphase and ends at early telophase. Accordingly, phosphorylation of histone H3 on serine 10 can be utilized as a marker of cells in mitosis. Nocodazole is a microtubule destabilizing substance. Thus, nocodazole interferes with microtubule dynamics and mobilises the spindle assembly checkpoint. […] An inhibition of the spindle assembly checkpoint by Mps-1 inhibitors overrides the mitotic blockage in the presence of nocodazole, and the cells complete mitosis prematurely. This alteration is detected by the decrease of cells with phosphorylation of histone H3 on serine 10. This decline is used as a marker to determine the capability of compounds of the present invention to induce a mitotic breakthrough.
Cultivated cells of the human cervical tumour cell line HeLa (ATCC CCL-2) were plated at a density of 2500 cells/well in a 384-well microtiter plate in 20 μl Dulbeco's Medium (w/o phenol red, w/o sodium pyruvate, w 1000 mg/ml glucose, w pyridoxine) supplemented with 1% (v/v) glutamine, 1% (v/v) penicillin, 1% (v/v) streptomycin and 10% (v/v) fetal calf serum. After incubation overnight at 37° C., 10 μl/well nocodazole at a final concentration of 0.1 μg/ml were added to cells. After 24 h incubation, cells were arrested at G2/M phase of the cell cycle progression. […] Images were acquired with a Perkin Elmer OPERA™ High-Content Analysis reader. Images were analyzed with image analysis software MetaXpress™ from Molecular devices utilizing the Cell Cycle application module. […] The raw assay data were further analysed by four parameter logistic regression analysis to determine the IC50 value for each tested compound.

[4] = target: T1, human CYP3A4 (Homo sapiens (Human), UniProt P08684); experiment: Determination of inhibitory potential on human CYP3A4; assay type: in vitro ADME; settings: human liver microsomes, midazolam as probe substrate
Experimental: Determination of Inhibitory Potential on Human CYP3A4
The potential of the test compound to act as a competitive inhibitor of CYP3A4 was evaluated in in vitro assays, using human liver microsomes and the reference substrate midazolam. The test compound was solved in acetonitrile. Human liver microsomal preparation (pool of HLM) was applied for the assay. A stock solution of the test compound was added to phosphate buffer containing EDTA, NADP, glucose 6-phosphate, and glucose 6-phosphate dehydrogenase. This mixture was sequentially diluted on a Genesis Workstation (Tecan, Crailsheim, FRG). After pre-warming, reaction was initiated by addition of a mixture of probe substrate (midazolam). […] The reference samples (substrate, but no inhibitor) were incubated in parallel in sextuple and contained the same amount of solvent as the test incubations. Reactions were stopped by addition of 100 μL acetonitrile containing the internal standard. Precipitated proteins were removed by centrifugation of the well plate, supernatants were analyzed by LC-MS/MS.
The CYP3A4-mediated metabolic activity in the presence of the test compounds was expressed as percentages of the corresponding reference value. A sigmoid-shaped curve was fitted to the data to calculate the enzyme inhibition parameter IC50 using a nonlinear least-squares regression analysis of the plot of percent control activity versus concentration of the test inhibitor.

[5] = target: T1, human CYP3A4; experiment: Determination of mechanism-based inhibition of human CYP3A4; assay type: in vitro ADME; settings: irreversible CYP3A4 inactivation; inactivator molecules metabolized per CYP3A4 molecule inactivated; testosterone substrate
Experimental: Determination of Mechanism-Based Inhibition of Human CYP3A4
The test compound was incubated at 37° C. in a concentration-NADPH-, and time-dependent setting. Therefore, the test compound was incubated at 4 different concentrations (e.g.: 1, 2, 5, 10 μM) in the presence of NADPH ([…]) and regenerating system in phosphate-buffered saline ([…], pH 7.4) The highest concentration of test compound was incubated without NADPH and therefore served as the NADPH-deficient control. In addition, acetonitrile as a vehicle control (negative control) and mibefradil as positive control for irreversible CYP3A4 inactivation were also included using identical assay conditions.
Each mixture was incubated with the enzyme (preincubation) for up to 50 minutes.
Afterwards, the reaction in the main incubation was stopped by the addition of acetonitrile (containing an internal standard), the protein was allowed to precipitate by placing the mixture into an ice bath. Subsequently, the mixture was centrifuged to pelletize the protein and the supernatants were analyzed by HPLC-MS for the isoform specific metabolite e.g. […] and the remaining amount of the test compound.
In parallel the turnover of the substrate was plotted against the preincubation time.

T1 sequence (P08684 whole entry): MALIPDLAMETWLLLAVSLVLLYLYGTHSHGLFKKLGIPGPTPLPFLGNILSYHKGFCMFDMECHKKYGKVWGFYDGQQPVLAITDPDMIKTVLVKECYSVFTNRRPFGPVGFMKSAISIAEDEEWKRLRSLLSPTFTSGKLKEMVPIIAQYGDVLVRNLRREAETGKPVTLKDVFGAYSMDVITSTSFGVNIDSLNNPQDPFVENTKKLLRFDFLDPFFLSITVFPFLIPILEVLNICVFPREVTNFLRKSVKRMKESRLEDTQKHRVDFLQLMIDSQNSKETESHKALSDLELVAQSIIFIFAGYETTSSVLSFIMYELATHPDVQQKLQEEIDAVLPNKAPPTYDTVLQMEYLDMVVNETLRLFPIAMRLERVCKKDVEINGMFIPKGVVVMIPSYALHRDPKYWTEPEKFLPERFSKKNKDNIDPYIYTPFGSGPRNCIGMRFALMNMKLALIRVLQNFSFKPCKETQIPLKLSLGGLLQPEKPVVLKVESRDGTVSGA

With `COc1ccc(Oc2cc(NCCC(F)(F)F)c3ncc(-c4ccc(C(=O)NC5CC5)c(C)c4)n3n2)c(F)c1F` [Example 2, N-cyclopropyl-4-{6-(2,3-difluoro-4-methoxyphenoxy)-8-[(3,3,3-trifluoropropyl)amino]imidazo[1,2-b]pyridazin-3-yl}-2-methylbenzamide] the IC50 [1] was 7.8 nM and the Fmax rat hep [2] was 72%.
With `Cc1cc(-c2cnc3c(NCCC(F)(F)F)cc(Oc4cccc(F)c4)nn23)ccc1C(=O)NC1CC1` [Ref., N-cyclopropyl-4-{6-(3-fluorophenoxy)-8-[(3,3,3-trifluoropropyl)amino]imidazo[1,2-b]pyridazin-3-yl}-2-methylbenzamide, reference compound] the IC50 [3] was 0.52 nM, the IC50 [1] was 23 nM and the IC50 [4] was > 10 µM. It also gave an Fmax rat hep [2] of 38% and a CYP3A4 partition ratio [5] of 3.
In the case of `COc1ccc(Oc2cc(NCC3COC3)c3ncc(-c4ccc(C(=O)NC5CC5)c(C)c4)n3n2)cc1F` [Example 1, N-cyclopropyl-4-{6-(3-fluoro-4-methoxyphenoxy)-8-[(oxetan-3-ylmethyl)amino]imidazo[1,2-b]pyridazin-3-yl}-2-methylbenzamide], the IC50 [3] is reported as 0.97 nM, the IC50 [1] is reported as 2.9 nM and the IC50 [4] is reported as > 5 µM. The Fmax rat hep [2] was 44% and the CYP3A4 partition ratio [5] was 105.
In the case of `COc1ccc(Oc2cc(NCC3CCOCC3)c3ncc(-c4ccc(C(=O)NC5CC5)c(C)c4)n3n2)c(F)c1F` [Example 3, N-cyclopropyl-4-{6-(2,3-difluoro-4-methoxyphenoxy)-8-[(tetrahydro-2H-pyran-4-ylmethyl)amino]imidazo[1,2-b]pyridazin-3-yl}-2-methylbenzamide], the IC50 [3] is reported as 0.08 nM, the IC50 [1] is reported as 18.1 nM and the IC50 [4] is reported as > 10 µM. The Fmax rat hep [2] was 39% and the CYP3A4 partition ratio [5] was 33.

Reference: patent publication US9512130B2, “Substituted imidazopyridazines” (BAYER PHARMA AKTIENGESELLSCHAFT, priority 2013, dated 2016)
